Measured values published in the NIST ThermoML archive (doi:10.1016/j.tca.2011.02.002).
± gives the expanded uncertainty stated by the source.

Assays:
[1] = excess molar enthalpy (molar enthalpy of mixing); xn = mol fraction of the nth substance listed; details: 308.15 K, 101 kPa, Liquid, 2-drop calorimeter (CSC 4600_
[2] = xn = mol fraction of the nth substance listed; details: 101 kPa, Liquid; for mass density: Vibrating tube method

Cc1ccccn1 [2-methylpyridine] + C1CCOCC1
[1]
Details | excess molar enthalpy [kcal/mol]
x2 = 0.0511 | 0.00394 ± 0.000287
x2 = 0.1102 | 0.00915 ± 0.000335
x2 = 0.1773 | 0.016 ± 0.000406
x2 = 0.2121 | 0.0196 ± 0.00043
x2 = 0.2683 | 0.0253 ± 0.000502
x2 = 0.3182 | 0.03 ± 0.00055
x2 = 0.3905 | 0.0356 ± 0.000598
x2 = 0.4304 | 0.0391 ± 0.000621
x2 = 0.4822 | 0.0413 ± 0.000645
x2 = 0.5216 | 0.0437 ± 0.000669
x2 = 0.5755 | 0.0442 ± 0.000693
x2 = 0.6213 | 0.0442 ± 0.000693
x2 = 0.6786 | 0.0428 ± 0.000669
x2 = 0.7288 | 0.0409 ± 0.000645
x2 = 0.7754 | 0.0373 ± 0.000621
x2 = 0.8216 | 0.0323 ± 0.000574
x2 = 0.8852 | 0.0232 ± 0.000478
x2 = 0.9217 | 0.0168 ± 0.000406

[2]
Details | mass density, 298.15 K [kg/m3] | mass density, 303.15 K [kg/m3] | mass density, 308.15 K [kg/m3] | speed of sound, 298.15 K [m/s] | speed of sound, 303.15 K [m/s] | speed of sound, 308.15 K [m/s]
x2 = 0 | 939.802 ± 0.99 | 935.117 ± 0.98 | 930.414 ± 0.98 | 1380.1 ± 2 | 1361 ± 2 | 1339.9 ± 2
x2 = 0.0367 | 937.731 ± 0.99 | 933.031 ± 0.98 | 928.307 ± 0.97 | 1376.6 ± 2 | 1357.6 ± 2 | 1336.4 ± 2
x2 = 0.0731 | 935.665 ± 0.98 | 930.947 ± 0.98 | 926.208 ± 0.97 | 1373 ± 2 | 1354.1 ± 2 | 1332.8 ± 2
x2 = 0.1274 | 932.552 ± 0.98 | 927.811 ± 0.97 | 923.053 ± 0.97 | 1367.7 ± 2 | 1348.5 ± 2 | 1327.2 ± 2
x2 = 0.1751 | 929.795 ± 0.98 | 925.036 ± 0.97 | 920.257 ± 0.96 | 1363 ± 2 | 1343.5 ± 2 | 1322 ± 2
x2 = 0.2373 | 926.162 ± 0.97 | 921.378 ± 0.96 | 916.581 ± 0.96 | 1356.6 ± 2 | 1336.7 ± 2 | 1315.2 ± 2
x2 = 0.2752 | 923.926 ± 0.97 | 919.13 ± 0.96 | 914.323 ± 0.95 | 1352.6 ± 2 | 1332.5 ± 2 | 1310.9 ± 2
x2 = 0.3262 | 920.901 ± 0.96 | 916.081 ± 0.96 | 911.259 ± 0.95 | 1347.2 ± 2 | 1326.7 ± 2 | 1305.1 ± 2
x2 = 0.3817 | 917.578 ± 0.96 | 912.735 ± 0.95 | 907.895 ± 0.94 | 1341.2 ± 2 | 1320.4 ± 2 | 1298.7 ± 2
x2 = 0.4248 | 914.974 ± 0.95 | 910.121 ± 0.95 | 905.265 ± 0.94 | 1336.5 ± 2 | 1315.4 ± 2 | 1293.7 ± 2
x2 = 0.4916 | 910.915 ± 0.95 | 906.032 ± 0.94 | 901.153 ± 0.94 | 1328.9 ± 2 | 1307.5 ± 2 | 1285.8 ± 2
x2 = 0.5525 | 907.178 ± 0.94 | 902.268 ± 0.94 | 897.366 ± 0.93 | 1322 ± 2 | 1300.4 ± 2 | 1278.5 ± 2
x2 = 0.6147 | 903.336 ± 0.94 | 898.401 ± 0.93 | 893.468 ± 0.93 | 1314.9 ± 2 | 1293 ± 2 | 1271.1 ± 2
x2 = 0.6674 | 900.064 ± 0.93 | 895.101 ± 0.93 | 890.14 ± 0.92 | 1308.7 ± 2 | 1286.8 ± 2 | 1264.8 ± 2
x2 = 0.7018 | 897.916 ± 0.93 | 892.937 ± 0.93 | 887.961 ± 0.92 | 1304.7 ± 2 | 1282.7 ± 2 | 1260.7 ± 2
x2 = 0.7736 | 893.419 ± 0.93 | 888.402 ± 0.92 | 883.383 ± 0.91 | 1296.3 ± 2 | 1274.2 ± 2 | 1252 ± 2
x2 = 0.8219 | 890.381 ± 0.92 | 885.337 ± 0.91 | 880.292 ± 0.91 | 1290.6 ± 2 | 1268.4 ± 2 | 1246.2 ± 2
x2 = 0.8673 | 887.518 ± 0.92 | 882.452 ± 0.91 | 877.377 ± 0.9 | 1285.3 ± 2 | 1262.9 ± 2 | 1240.7 ± 2
x2 = 0.9428 | 882.751 ± 0.91 | 877.641 ± 0.9 | 872.516 ± 0.9 | 1276.5 ± 2 | 1253.8 ± 2 | 1231.5 ± 2

Cc1cccnc1 [3-methylpyridine] + C1CCOCC1
[1]
Details | excess molar enthalpy [kcal/mol]
x2 = 0.0532 | 0.0059 ± 0.000311
x2 = 0.1118 | 0.0118 ± 0.000359
x2 = 0.1802 | 0.0181 ± 0.00043
x2 = 0.2238 | 0.0215 ± 0.000454
x2 = 0.2732 | 0.0248 ± 0.000478
x2 = 0.3311 | 0.0277 ± 0.000526
x2 = 0.3913 | 0.0298 ± 0.00055
x2 = 0.4461 | 0.0302 ± 0.00055
x2 = 0.4803 | 0.0304 ± 0.00055
x2 = 0.5365 | 0.0299 ± 0.00055
x2 = 0.5868 | 0.0293 ± 0.000526
x2 = 0.6344 | 0.0276 ± 0.000526
x2 = 0.6802 | 0.0249 ± 0.000502
x2 = 0.7355 | 0.0221 ± 0.000454
x2 = 0.7832 | 0.0184 ± 0.00043
x2 = 0.8326 | 0.0149 ± 0.000382
x2 = 0.8914 | 0.00963 ± 0.000335
x2 = 0.9336 | 0.00607 ± 0.000311

[2]
Details | mass density, 298.15 K [kg/m3] | mass density, 303.15 K [kg/m3] | mass density, 308.15 K [kg/m3] | speed of sound, 298.15 K [m/s] | speed of sound, 303.15 K [m/s] | speed of sound, 308.15 K [m/s]
x2 = 0 | 952.002 ± 1 | 947.449 ± 1 | 942.831 ± 0.99 | 1424 ± 2 | 1404 ± 2 | 1384 ± 2
x2 = 0.0562 | 948.099 ± 1 | 943.521 ± 1 | 938.854 ± 0.99 | 1415.9 ± 2 | 1395.6 ± 2 | 1375.6 ± 2
x2 = 0.0848 | 946.113 ± 1 | 941.519 ± 0.99 | 936.827 ± 0.99 | 1411.8 ± 2 | 1391.4 ± 2 | 1371.4 ± 2
x2 = 0.1357 | 942.576 ± 0.99 | 937.954 ± 0.99 | 933.219 ± 0.98 | 1404.5 ± 2 | 1383.9 ± 2 | 1363.8 ± 2
x2 = 0.1826 | 939.306 ± 0.99 | 934.651 ± 0.98 | 929.891 ± 0.98 | 1397.8 ± 2 | 1377.1 ± 2 | 1356.8 ± 2
x2 = 0.2461 | 934.857 ± 0.98 | 930.166 ± 0.98 | 925.361 ± 0.97 | 1388.8 ± 2 | 1367.8 ± 2 | 1347.2 ± 2
x2 = 0.2833 | 932.236 ± 0.98 | 927.522 ± 0.97 | 922.691 ± 0.97 | 1383.3 ± 2 | 1362.3 ± 2 | 1341.5 ± 2
x2 = 0.3345 | 928.61 ± 0.97 | 923.861 ± 0.97 | 919.004 ± 0.96 | 1375.8 ± 2 | 1354.5 ± 2 | 1333.6 ± 2
x2 = 0.3813 | 925.271 ± 0.97 | 920.499 ± 0.96 | 915.608 ± 0.96 | 1368.6 ± 2 | 1347.3 ± 2 | 1326.2 ± 2
x2 = 0.4262 | 922.049 ± 0.96 | 917.247 ± 0.96 | 912.336 ± 0.95 | 1361.8 ± 2 | 1340.3 ± 2 | 1319.2 ± 2
x2 = 0.4827 | 917.964 ± 0.96 | 913.129 ± 0.95 | 908.186 ± 0.95 | 1353 ± 2 | 1331.2 ± 2 | 1310.1 ± 2
x2 = 0.5378 | 913.951 ± 0.95 | 909.085 ± 0.95 | 904.106 ± 0.94 | 1344.3 ± 2 | 1322.4 ± 2 | 1301.2 ± 2
x2 = 0.5924 | 909.933 ± 0.95 | 905.038 ± 0.94 | 900.027 ± 0.94 | 1335.5 ± 2 | 1313.3 ± 2 | 1292.3 ± 2
x2 = 0.6382 | 906.545 ± 0.94 | 901.626 ± 0.94 | 896.591 ± 0.93 | 1328 ± 2 | 1305.7 ± 2 | 1284.7 ± 2
x2 = 0.6982 | 902.068 ± 0.94 | 897.114 ± 0.93 | 892.051 ± 0.92 | 1318.1 ± 2 | 1295.6 ± 2 | 1274.7 ± 2
x2 = 0.7568 | 897.664 ± 0.93 | 892.682 ± 0.92 | 887.584 ± 0.92 | 1308.6 ± 2 | 1285.8 ± 2 | 1264.9 ± 2
x2 = 0.8138 | 893.349 ± 0.93 | 888.335 ± 0.92 | 883.218 ± 0.91 | 1299.2 ± 2 | 1276.4 ± 2 | 1255.4 ± 2
x2 = 0.8825 | 888.124 ± 0.92 | 883.068 ± 0.91 | 877.926 ± 0.9 | 1288.2 ± 2 | 1265.1 ± 2 | 1243.9 ± 2
x2 = 0.9321 | 884.334 ± 0.91 | 879.246 ± 0.91 | 874.092 ± 0.9 | 1280.3 ± 2 | 1257.2 ± 2 | 1235.7 ± 2
